Reference: US20230085307A1, “PYRIDAZINONE COMPOUND AND HERBICIDE” (NISSAN CHEMICAL CORPORATION, priority 2019, published 2023)

Legend:
[1] = test system: Chinese sprangletop; experiment: Test Example 3: herbicidal effect by foliage application, Wagner pot (Table 18, symbol D); assay type: in vivo, chinese sprangletop (Leptochloa chinensis); settings: for herbicidal effect on Chinese sprangletop (D): 320 g/ha
Method in brief: (§1)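 Plants were sown in alluvial soil held under 0.1–0.5 cm standing water and grown 14 days in a greenhouse at 25–30 °C. An emulsifiable formulation, water-diluted to the set dose, was then sprayed onto the foliage, and effects were scored three weeks later using previously defined criteria.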

[2] = test system: southern crabgrass; experiment: Test Example 5: herbicidal effect by foliage application, plastic box (Table 20, symbol F); assay type: in vivo, southern crabgrass (Digitaria ciliaris); settings: 320 g/ha; for herbicidal effect on F: southern crabgrass (evaluation grade 0-5): foliage application after 14-day growth, evaluated three weeks after application
Method in brief: (§2)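 Plants sown in sterilized diluvial soil and grown 14 days in a greenhouse at 25° C to 30° C, then sprayed on the foliage with the compound's emulsion diluted in water to a predetermined herbicide amount. Injury to weeds and crops scored three weeks after application on a visual rating scale.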

[3] = test system: green foxtail; experiment: Test Example 5: herbicidal effect by foliage application, plastic box (Table 20, symbol G); assay type: in vivo, green foxtail (Setaria viridis); settings: 320 g/ha; for herbicidal effect on G: green foxtail (evaluation grade 0-5): foliage application after 14-day growth, evaluated three weeks after application
Method in brief: as §2

[4] = test system: velvetleaf; experiment: Test Example 5: herbicidal effect by foliage application, plastic box (Table 20, symbol M); assay type: in vivo, velvetleaf (Abutilon theophrasti); settings: 320 g/ha; for herbicidal effect on M: velvetleaf (evaluation grade 0-5): foliage application after 14-day growth, evaluated three weeks after application
Method in brief: as §2

[5] = test system: windgrass; experiment: Test Example 5: herbicidal effect by foliage application, plastic box (Table 20, symbol L); assay type: in vivo, windgrass (Apera spica-venti); settings: 320 g/ha; for herbicidal effect on L: windgrass (evaluation grade 0-5): foliage application after 14-day growth, evaluated three weeks after application
Method in brief: as §2

[6] = test system: barnyard grass; experiment: Test Example 3: herbicidal effect by foliage application, Wagner pot (Table 18, symbol H); assay type: in vivo, barnyard grass (Echinochloa crus-galli); settings: for herbicidal effect on barnyard grass (H): 320 g/ha
Method in brief: as §1

[7] = test system: late watergrass; experiment: Test Example 2: herbicidal activity, application during weed generation under submerged conditions (Table 17, symbol A); assay type: in vivo, late watergrass (Echinochloa oryzicola); settings: AAH 320 g/ha; application during weed generation, submerged conditions
Description: (§3) [Test Example 2] Herbicidal Activity Test by Application during Weed Generation under Submerged Conditions After alluvial soil was placed into 1/10000 are of Wagner pot, water was poured and mixed to form a submerged condition having a water depth of 4 cm. Seeds of late watergrass, Japanese bulrush, and oval-leafed pondweed were sowed in a mixed manner in the aforementioned pot, and the pot was placed in a greenhouse at 25° C. to 30° C. for growth of the plants. When late watergrass, Japanese bulrush, and oval-leafed pondweed were grown to one leaf stage to two leaf stage, the emulsion agent of the compound of the present invention prepared according to Formulation Example 2 was diluted with water so as to achieve a predetermined herbicide amount, and the diluted emulsion agent was applied to the surface of the water. Three weeks after the herbicide application, the effect of the herbicide on each plant was evaluated according to the criteria of Test Example 1.

[8] = test system: redroot pigweed; experiment: Test Example 5: herbicidal effect by foliage application, plastic box (Table 20, symbol N); assay type: in vivo, redroot pigweed (Amaranthus retroflexus); settings: 320 g/ha; for herbicidal effect on N: redroot pigweed (evaluation grade 0-5): foliage application after 14-day growth, evaluated three weeks after application
Method in brief: as §2

[9] = test system: oval-leafed pondweed; experiment: Test Example 2: herbicidal activity, application during weed generation under submerged conditions (Table 17, symbol C); assay type: in vivo, oval-leafed pondweed (Monochoria vaginalis); settings: AAH 320 g/ha; application during weed generation, submerged conditions
Method in brief: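 Steps: fill Wagner pots with alluvial soil; add water to give 4 cm depth; sow the species mixed; grow under glass at 25–30° C.; at 1–2 leaves apply water-diluted emulsion formulation to the water surface at a fixed herbicide amount; score after 3 weeks.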

[10] = test system: blackgrass; experiment: Test Example 5: herbicidal effect by foliage application, plastic box (Table 20, symbol J); assay type: in vivo, blackgrass (Alopecurus myosuroides); settings: 320 g/ha; for herbicidal effect on J: blackgrass (evaluation grade 0-5): foliage application after 14-day growth, evaluated three weeks after application
Method in brief: as §2

[11] = test system: Italian ryegrass; experiment: Test Example 5: herbicidal effect by foliage application, plastic box (Table 20, symbol K); assay type: in vivo, Italian ryegrass (Lolium multiflorum); settings: 320 g/ha; for herbicidal effect on K: Italian ryegrass (evaluation grade 0-5): foliage application after 14-day growth, evaluated three weeks after application
Method in brief: as §2

[12] = test system: lambsquarters; experiment: Test Example 5: herbicidal effect by foliage application, plastic box (Table 20, symbol O); assay type: in vivo, lambsquarters (Chenopodium album); settings: 320 g/ha; for herbicidal effect on O: lambsquarters (evaluation grade 0-5): foliage application after 14-day growth, evaluated three weeks after application
Method in brief: as §2

[13] = test system: barnyard grass; experiment: Test Example 5: herbicidal effect by foliage application, plastic box (Table 20, symbol H); assay type: in vivo, barnyard grass (Echinochloa crus-galli); settings: 320 g/ha; for herbicidal effect on H: barnyard grass (evaluation grade 0-5): foliage application after 14-day growth, evaluated three weeks after application
Method in brief: as §2

[14] = test system: wild oat; experiment: Test Example 5: herbicidal effect by foliage application, plastic box (Table 20, symbol I); assay type: in vivo, wild oat (Avena fatua); settings: 320 g/ha; for herbicidal effect on I: wild oat (evaluation grade 0-5): foliage application after 14-day growth, evaluated three weeks after application
Method in brief: as §2

[15] = test system: persian speedwell; experiment: Test Example 5: herbicidal effect by foliage application, plastic box (Table 20, symbol R); assay type: in vivo, Persian speedwell (Veronica persica); settings: 320 g/ha; for herbicidal effect on R: persian speedwell (evaluation grade 0-5): foliage application after 14-day growth, evaluated three weeks after application
Method in brief: as §2

[16] = test system: rice flat sedge; experiment: Test Example 3: herbicidal effect by foliage application, Wagner pot (Table 18, symbol E); assay type: in vivo, rice flat sedge (Cyperus iria); settings: for herbicidal effect on rice flat sedge (E): 320 g/ha
Method in brief: as §1

[17] = test system: chickweed; experiment: Test Example 5: herbicidal effect by foliage application, plastic box (Table 20, symbol P); assay type: in vivo, common chickweed (Stellaria media); settings: 320 g/ha; for herbicidal effect on P: chickweed (evaluation grade 0-5): foliage application after 14-day growth, evaluated three weeks after application
Method in brief: as §2

[18] = test system: Japanese bulrush; experiment: Test Example 2: herbicidal activity, application during weed generation under submerged conditions (Table 17, symbol B); assay type: in vivo, Japanese bulrush (Schoenoplectus juncoides); settings: AAH 320 g/ha; application during weed generation, submerged conditions
Description: as §3

[19] = amount of applied herbicide 320 g/ha
[20] = foliage application, three weeks after application

SMILES: CCCC(=O)Oc1c(C)nn(C)c(=O)c1-c1c(-c2ccc(C(F)(F)F)cc2F)sc2c(Cl)cccc12 [4-038]
- herbicidal effect on Chinese sprangletop (D) [1]: 5 (Herbicidal rate of 90% or more (almost completely withered))
- herbicidal effect on F: southern crabgrass (evaluation grade 0-5) [2]: 0 (Herbicidal rate of 5% or less (almost no effect))
- herbicidal effect on G: green foxtail (evaluation grade 0-5) [3]: 0 (Herbicidal rate of 5% or less (almost no effect))
- herbicidal effect on M: velvetleaf (evaluation grade 0-5) [4]: 0 (Herbicidal rate of 5% or less (almost no effect))
- herbicidal effect on L: windgrass (evaluation grade 0-5) [5]: 5 (Herbicidal rate of 90% or more (almost completely withered))
- herbicidal effect on barnyard grass (H) [6]: 4 (Herbicidal rate of 70% or more and less than 90%)
- herbicidal effect rating, A: late watergrass [7]: 2 (Herbicidal rate of 20% or more and less than 40%)
- herbicidal effect on N: redroot pigweed (evaluation grade 0-5) [8]: 0 (Herbicidal rate of 5% or less (almost no effect))
- herbicidal effect rating, C: oval-leafed pondweed [9]: 0 (Herbicidal rate of 5% or less (almost no effect))
- herbicidal effect on J: blackgrass (evaluation grade 0-5) [10]: 0 (Herbicidal rate of 5% or less (almost no effect))
- herbicidal effect on K: Italian ryegrass (evaluation grade 0-5) [11]: 4 (Herbicidal rate of 70% or more and less than 90%)
- herbicidal effect on O: lambsquarters (evaluation grade 0-5) [12]: 0 (Herbicidal rate of 5% or less (almost no effect))
- herbicidal effect on H: barnyard grass (evaluation grade 0-5) [13]: 0 (Herbicidal rate of 5% or less (almost no effect))
- herbicidal effect on I: wild oat (evaluation grade 0-5) [14]: 2 (Herbicidal rate of 20% or more and less than 40%)
- herbicidal effect on R: persian speedwell (evaluation grade 0-5) [15]: 4 (Herbicidal rate of 70% or more and less than 90%)
- herbicidal effect on rice flat sedge (E) [16]: 4 (Herbicidal rate of 70% or more and less than 90%)
- herbicidal effect on P: chickweed (evaluation grade 0-5) [17]: 4 (Herbicidal rate of 70% or more and less than 90%)
- herbicidal effect rating, B: Japanese bulrush [18]: 3 (Herbicidal rate of 40% or more and less than 70%)

SMILES: CCCC(=O)Oc1c(C)nn(C)c(=O)c1-c1c(-c2ccc(Cl)cc2)sc2c(Cl)cccc12 [4-018]
- herbicidal effect on Chinese sprangletop (D) [1]: 4 (Herbicidal rate of 70% or more and less than 90%)
- herbicidal effect on F: southern crabgrass (evaluation grade 0-5) [2]: 0 (Herbicidal rate of 5% or less (almost no effect))
- herbicidal effect on G: green foxtail (evaluation grade 0-5) [3]: 0 (Herbicidal rate of 5% or less (almost no effect))
- herbicidal effect on M: velvetleaf (evaluation grade 0-5) [4]: 4 (Herbicidal rate of 70% or more and less than 90%)
- herbicidal effect on L: windgrass (evaluation grade 0-5) [5]: 5 (Herbicidal rate of 90% or more (almost completely withered))
- herbicidal effect on barnyard grass (H) [6]: 4 (Herbicidal rate of 70% or more and less than 90%)
- herbicidal effect rating, A: late watergrass [7]: 0 (Herbicidal rate of 5% or less (almost no effect))
- herbicidal effect on N: redroot pigweed (evaluation grade 0-5) [8]: 3 (Herbicidal rate of 40% or more and less than 70%)
- herbicidal effect rating, C: oval-leafed pondweed [9]: 3 (Herbicidal rate of 40% or more and less than 70%)
- herbicidal effect on J: blackgrass (evaluation grade 0-5) [10]: 4 (Herbicidal rate of 70% or more and less than 90%)
- herbicidal effect on K: Italian ryegrass (evaluation grade 0-5) [11]: 3 (Herbicidal rate of 40% or more and less than 70%)
- herbicidal effect on O: lambsquarters (evaluation grade 0-5) [12]: 0 (Herbicidal rate of 5% or less (almost no effect))
- herbicidal effect on H: barnyard grass (evaluation grade 0-5) [13]: 0 (Herbicidal rate of 5% or less (almost no effect))
- herbicidal effect on I: wild oat (evaluation grade 0-5) [14]: 3 (Herbicidal rate of 40% or more and less than 70%)
- herbicidal effect on R: persian speedwell (evaluation grade 0-5) [15]: 4 (Herbicidal rate of 70% or more and less than 90%)
- herbicidal effect on rice flat sedge (E) [16]: 3 (Herbicidal rate of 40% or more and less than 70%)
- herbicidal effect on P: chickweed (evaluation grade 0-5) [17]: 5 (Herbicidal rate of 90% or more (almost completely withered))
- herbicidal effect rating, B: Japanese bulrush [18]: 3 (Herbicidal rate of 40% or more and less than 70%)

SMILES: CCCC(=O)Oc1c(C)nn(C)c(=O)c1-c1c(-c2ccc(Cl)cc2)sc2cc(F)ccc12 [3-016]
- herbicidal effect on D: Chinese sprangletop [1, 19]: 4 (Herbicidal rate of 70% or more and less than 90%)
- F: southern crabgrass, herbicidal effect grade [2, 20]: 0 (Herbicidal rate of 5% or less (almost no effect))
- G: green foxtail, herbicidal effect grade [3, 20]: 0 (Herbicidal rate of 5% or less (almost no effect))
- M: velvetleaf, herbicidal effect grade [4, 20]: 3 (Herbicidal rate of 40% or more and less than 70%)
- L: windgrass, herbicidal effect grade [5, 20]: 5 (Herbicidal rate of 90% or more (almost completely withered))
- herbicidal effect on H: barnyard grass [6, 19]: 3 (Herbicidal rate of 40% or more and less than 70%)
- herbicidal effect rating, A: late watergrass [7]: 3 (Herbicidal rate of 40% or more and less than 70%)
- N: redroot pigweed, herbicidal effect grade [8, 20]: 1 (Herbicidal rate of 5% or more and less than 20%)
- herbicidal effect rating, C: oval-leafed pondweed [9]: 0 (Herbicidal rate of 5% or less (almost no effect))
- J: blackgrass, herbicidal effect grade [10, 20]: 0 (Herbicidal rate of 5% or less (almost no effect))
- K: Italian ryegrass, herbicidal effect grade [11, 20]: 0 (Herbicidal rate of 5% or less (almost no effect))
- O: lambsquarters, herbicidal effect grade [12, 20]: 3 (Herbicidal rate of 40% or more and less than 70%)
- H: barnyard grass, herbicidal effect grade [13, 20]: 0 (Herbicidal rate of 5% or less (almost no effect))
- I: wild oat, herbicidal effect grade [14, 20]: 1 (Herbicidal rate of 5% or more and less than 20%)
- R: persian speedwell, herbicidal effect grade [15, 20]: 4 (Herbicidal rate of 70% or more and less than 90%)
- herbicidal effect on E: rice flat sedge [16, 19]: 4 (Herbicidal rate of 70% or more and less than 90%)
- P: chickweed, herbicidal effect grade [17, 20]: 3 (Herbicidal rate of 40% or more and less than 70%)
- herbicidal effect rating, B: Japanese bulrush [18]: 0 (Herbicidal rate of 5% or less (almost no effect))
